Target: Isocitrate dehydrogenase [NADP], mitochondrial (Homo sapiens, UniProt P48735, R140Q)
Assay: IDH2 Enzymatic Assay: Compounds were assayed for IDH2 R140Q inhibitory activity through a cofactor depletion assay. […] The reaction was terminated by the addition of a second enzyme, diaphorase, and a corresponding substrate, resazurin. Diaphorase reduces resazurin to the highly fluorescent resorufin with the concomitant oxidation of NADPH to NADP, both halting the IDH2 reaction by depleting the available cofactor pool and facilitating quantitation of the amount of cofactor remaining after a specific time period through quantitative production of an easily detected fluorophore.Specifically, into each of 12 wells of a 384-well plate, 1 μl of compound dilution series was placed, followed by the addition of 40 μl of buffer (50 mM potassium phosphate, pH 7.5; 150 mM NaCl; 10 mM MgCl2, 10% glycerol, 0.05% bovine serum albumin, 2 mM beta-mercaptoethanol) containing 1.25 μg/ml IDH2 R140Q. The compound was then incubated for one hour at room temperature with the enzyme; before starting the IDH2 reaction with the addition of 10 μl of substrate mix containing 50 μM NADPH and 6.3 mM α-KG in the buffer described above. After a further one hour of incubation at room temperature, the reaction was halted and the remaining NADPH measured through conversion of resazurin to resorufin by the addition of 25 μl Stop Mix (36 μg/ml diaphorase enzyme and 60 μM resazurin; in buffer). […]

Chain of Isocitrate dehydrogenase [NADP], mitochondrial (P48735 40-452 R140Q limits assumed): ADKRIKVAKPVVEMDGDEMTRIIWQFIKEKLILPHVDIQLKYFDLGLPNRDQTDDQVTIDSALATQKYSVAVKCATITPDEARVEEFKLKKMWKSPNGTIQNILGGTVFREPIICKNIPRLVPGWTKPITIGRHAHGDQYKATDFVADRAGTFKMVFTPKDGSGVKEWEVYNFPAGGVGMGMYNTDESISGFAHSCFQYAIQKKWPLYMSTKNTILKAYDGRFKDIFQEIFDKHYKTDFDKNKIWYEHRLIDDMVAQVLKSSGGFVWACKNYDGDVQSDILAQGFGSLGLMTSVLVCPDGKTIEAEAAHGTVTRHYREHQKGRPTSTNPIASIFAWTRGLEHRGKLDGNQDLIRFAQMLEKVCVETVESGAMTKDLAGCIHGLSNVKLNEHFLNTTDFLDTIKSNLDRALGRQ

IC50 [nM]	Compound
< 100	CCSc1ccc(S(=O)(=O)NCC(F)(F)F)cc1NC(=O)Nc1cccc(C(F)(F)F)c1
100 to 1000	O=C(Nc1cccc(C(F)(F)F)c1)Nc1cc(S(=O)(=O)Nc2ccccc2)ccc1-c1cccs1

— ChEMBL document CHEMBL5726394, “Therapeutic compounds and compositions” (2019)
